These results are taken from patent publication US20100022559A1, “BISOXIMES AS FUNGICIDES” (BAYER CROPSCIENCE AG, priority 2006, published 2010).

The nature of this data set: logP determination by HPLC on a reversed-phase column (C 18), EEC Directive 79/831 Annex V.A8. Format: physicochemical. As for the experimental part: The stated logP values were determined in accordance with EEC Directive 79/831 Annex V.A8 by HPLC (high performance liquid chromatography) on a reversed-phase column (C 18). Temperature: 43° C.
Setting [1] is: method marker [b], isomer A / isomer B / isomer mixture as noted in the cell.
Setting [2] is: method marker [a] (footnote not shown), isomer A / isomer B / isomer mixture as noted in the cell.

Each structure is given as a SMILES string.

Consider `C=C(CON=C(C)c1nccc(OCC)n1)CON=C(C)c1nccc(OCC)n1` [compound 252], for which, under setting [1], the logP was 3.42^[b].
`CC(=NOCC(C)CON=C(C)c1nc(C)c(C)c(C)n1)c1nc(C)c(C)c(C)n1` (centres unmarked) [Compound 266]: the logP (value marked [b]) is 3.41^[b].
As to `C=C(CON=C(C)c1ccc(Cl)nc1)CON=C(C)c1ccc(Cl)nc1` [Compound 57], under setting [1], the logP was 4.38^[b].
As for `CC(=NOCC(CON=C(C)c1cc(C)cc(C)n1)Cc1ccccc1)c1cc(C)cc(C)n1` (centres unmarked) [Compound 582], the logP reads like this: (method marked [b] in Table 1) 3.62^[b]; (method marked [c] in Table 1) 6.97^[c].
Regarding `CCC(=NOCCON=C(CC)c1cccc(C)n1)c1cccc(C)n1` (mixture of isomers) [compound 222], the logP under setting [2] is 3.77^[a].
For `CC(=NOCC1(CON=C(C)c2cccc(C)n2)COC(=O)N1)c1cccc(C)n1` (centres unmarked) [compound 856], the logP is 1.99^[b] (value marked [b]) and 2.97^[c] (value marked [c]).
For the molecule `CC(=NOCC(C)(O)CON=C(C)c1ccccn1)c1ccccn1` (centres unmarked) [compound 2], the logP under setting [2] is 1.73^[a].
`C=C(CON=C(N)c1cc(C)cc(C)n1)CON=C(N)c1cc(C)cc(C)n1` [compound 127]: the logP under setting [1] was 2.7^[b].
Take `CC(=NOCCCCON=C(C)c1cccc2ccccc12)c1cccc(C)n1` [compound 383]: the logP (value marked [b]) was 5.19^[b].
As to `CCC(=NOCC1(CON=C(CC)c2cccc(C)n2)CC(C(C)C)=NO1)c1cccc(C)n1` (centres unmarked) [compound 606], the logP (method marked [b] in Table 1) is 4.67^[b].
In the case of `CC(=NOCCCCON=C(C)c1cc2ccccc2o1)c1cccc(C)n1` [compound 381], the logP (value marked [b]) was 4.74^[b].
Consider `CC(=NOCCCON=C(C)c1ccncc1)c1ccncc1` [compound 29], for which, under setting [1], the logP was 1.23^b].
On to `CC(=NOCCCCON=C(c1ccccc1)c1cccc(C)n1)c1cccc(C)n1` [compound 332], for which the logP (value marked [b]) is 3.51^[b].
In the case of `CC(=NOCCCCON=C(C)c1cccc(Cc2ccccc2)n1)c1cccc(C)n1` [compound 324], the logP (value marked [b]) was 5.84^[b].
With `CC(=NOCCC(C)ON=C(C)c1nc(C)ccc1C)c1nc(C)ccc1C` (single isomer, unassigned) [compound 758], the logP is, setting by setting: (method marked [b] in Table 1) 2.13^[b]; (method marked [c] in Table 1) 4.03^[c].
As for `CC(=NOCC(C)(C)CON=C(C)c1nc2ccccc2[nH]1)c1nc2ccccc2[nH]1` [Compound 573], the logP (method marked [a] in Table 1) is 2.10^[a].
Take `CC(=NOCc1ccc(CON=C(C)c2cccc(C)n2)cc1)c1cccc(C)n1` [compound 705]: the logP (method marked [b] in Table 1) was 4.27^[b].
As for `CCCC(=NOCC(C)CON=C(C)c1cccc(C)n1)c1ncccc1C` (single isomer, unassigned) [compound 548], where the note is “method marked [b] in Table 1”, the logP was 3.85^[b] (isomer A).
For `CC(=NOC[Si](C)(CON=C(C)c1cc(C)cc(C)n1)C(C)C)c1cc(C)cc(C)n1` [Compound 836], the logP is, setting by setting: (value marked [a]) 5.04^[a]; (value marked [b]) 5.04^[b]; (value marked [c]) 7.36^[c].
With `C/C(=N\OCC1(CO/N=C(\C)c2ccc(C)c(C)n2)CC1)c1cc(C)cc(C)n1` [(1E)-1-(4,6-dimethylpyridin-2-yl)ethanone O-({1-[({[(1E)-1-(5,6-dimethylpyridin-2-yl)ethylidene]amino}oxy)methyl]cyclopropyl}methyl)oxime], where the note is “reversed-phase HPLC column (C 18), HCO2H, HPLC reversed-phase column (C 18), 43° C., read-out: logP (HCO2H)”, the chromatographic logP amounted to 2.61.
As to `CCC(=NOCC(C)(C)CON=C(CC)c1cccc(C)n1)c1cccc(C)n1` [Compound 277], the logP (value marked [a]) is 6.11^[a].
For `CC(=NOCC(F)(F)CON=C(C)c1cccc(C)n1)c1cccc(C)n1` [compound 86], the logP under setting [2] is 4.00^[a].
As for `CC(=NOCCCCON=C(C)c1cccc(C)n1)c1ccc2ccccc2c1` [compound 445], the logP (value marked [a]) was 5.72^[a].
Turning to `COc1cccc(C(C)=NOCC(=O)CON=C(C)c2cccc(OC)n2)n1` [compound 247], the logP under setting [1] was 4.61^[b].
`C/C(=N\OCC1(CO/N=C(\C)c2cccc(C)n2)CC(c2cccc(Cl)c2)=NO1)c1cccc(C)n1` [compound 603]: the logP (method marked [b] in Table 1) is 4.67^[b].
Take `CC(=NOCC(C)CON=C(C)c1cccc(C)n1)c1ccc2c(c1)CC(C)O2` (centres unmarked) [compound 494]: under “value marked [a]”, the logP was 5.27^[a].
Consider `CC(=NOCCC(C)ON=C(C)c1nc(C)ccc1C)c1nc(C)ccc1C` (single isomer, unassigned) [compound 759], for which the logP is 3.12^[b] (method marked [b] in Table 1) and 5.02^[c] (method marked [c] in Table 1).
With `C/C(=N\OCC1(CON)CC1)c1cc(C)cc(C)n1` [XII-12], the logP ([a] acidic range, pH 2.3, 0.1% aqueous phosphoric acid and acetonitrile) is 0.61^[a]; the logP ([b] LC-MS, acidic range, pH 2.7, 0.1% aqueous formic acid and acetonitrile) was 0.61^[b]; the logP ([c] LC-MS, neutral range, pH 7.8, 0.001 molar aqueous ammonium bicarbonate solution and acetonitrile) is 2.42^[c].
For the molecule `COCc1nc(C(N)=NOC/C=C/CON=C(N)c2nc(COC)c(C)c(COC)n2)nc(COC)c1C` (single isomer, unassigned) [compound 769], the logP (value marked [b]) is 1.75^[b] (isomer B).
As for `CCCC(=NOCC1(CON=C(CCC)c2cccc(C)n2)CC(c2ccc(Cl)cc2)=NO1)c1cccc(C)n1` (centres unmarked) [compound 622], under “method marked [b] in Table 1”, the logP is 6.58^[b].
For the molecule `CC(=NOCc1cccc(CON=C(C)c2ccc(C)c(C)n2)n1)c1ccc(C)c(C)n1` [compound 741], the logP is, setting by setting: (method marked [b] in Table 1) 2.30^[b]; (method marked [c] in Table 1) 5.08^[c].
Consider `C=C(CON=C(C)c1cccc(C)n1)CON=C(C)c1cccc(Br)n1` [Compound 206], for which the logP under setting [1] was 4.98^[b].
Consider `CCCC(=NOCC1(CON=C(CCC)c2cccc(C)n2)CC(C(C)C)=NO1)c1cccc(C)n1` (centres unmarked) [compound 616], for which the logP (method marked [b] in Table 1) was 5.71^[b].
Same read-out and setting: next, `Cc1cc(C)nc(/C(N)=N/OCc2cccc(CO/N=C(\N)c3nc(C)cc(C)n3)c2)n1` [compound 701]: 2.13^[b].
`CC(=NOCC(C)CON=C(C)c1ccc(C)cn1)c1ccc(C)cn1` (centres unmarked) [compound 133]: the logP under setting [2] is given as 3.67^a].
Turning to `Cc1cccc(C(=NOCC2(CON=C(c3cccc(C)n3)C3CC3)CC(C(C)(C)C)=NO2)C2CC2)n1` (mixture of isomers) [compound 651], for the setting “method marked [a] in Table 1”, the logP was 3.98^[a].
As to `C=C(CON=C(C)c1ccc2ccc(C)cc2n1)CON=C(C)c1ccc2ccc(C)cc2n1` [compound 749], the logP runs as follows: (method marked [b] in Table 1) 7.36^[b]; (method marked [c] in Table 1) 7.36^[c].
Taken in the same sequence, the figures for `CC(=NOCC(C)CON=C(C)c1cccc(-c2cccc(C)n2)n1)c1cccc(-c2cccc(C)n2)n1` (centres unmarked) [compound 551] were 6.24^[b] and 3.26^[c].
Regarding `CC(=NOCC(C)CON=C(C)c1cccc(N2CCCC2)n1)c1cccc(N2CCCC2)n1` (centres unmarked) [Compound 783], for the setting “value marked [a]”, the logP was 2.51^[a].
For the molecule `CC(=NOCC(C)(C)CON=C(C)c1nccc(C)n1)c1cccc(C)n1` [compound 511], the logP (value marked [b]) was 3.02^[b].
Take `CC(=NOC/C=C\CON=C(C)c1ccccn1)c1ccccn1` [Compound 541]: for the setting “method marked [b] in Table 1”, the logP was 3.04^[b].
Same read-out and setting: in the case of `Cc1cccc(C=NOCC=CCON=Cc2cccc(C)n2)n1` [compound 737] it was 2.18^[b].
As for `CC(=NOCC1(CON=C(C)c2nc(C)ccc2C)CC1)c1nc(C)ccc1C` (single isomer, unassigned) [compound 764], the logP reads like this: (value marked [b]) 2.17^[b]; (value marked [c]) 4.00^[c].
As to `CC(=NOCCCON=C(C)c1nc(C)c(C)cc1C)c1nc(C)c(C)cc1C` [compound 256], where the note is “value marked [a]”, the logP is 1.84^[a].
For `C=C(CON=C(C)c1cccc(C)n1)CON=C(C)c1cccnc1Cl` [compound 147], the logP under setting [1] is 3.34^[b].
`CC(=NOCC1(CON=C(C)c2cccc(C)n2)CC(c2ccccc2)=NO1)c1cccc(C)n1` (centres unmarked) [Compound 593]: the logP (method marked [a] in Table 1) was 3.74^[a].
As to `C=C(CON=C(N)c1cc(C)cc(C)c1)CON=C(C)c1cccc(C)n1` [compound 185], the logP under setting [1] was 3.17^[b].
As for `CC(=NOCCCON=C(C)c1ccc2c(n1)CCCC2)c1ccc2c(n1)CCCC2` [compound 305], the logP (value marked [a]) was 3.96^[a].
As for `C=C(CON=C(C)c1cccc(C)n1)CON=C(Cl)c1ccc(C)c(C)n1` [Compound 807], under “value marked [a]”, the logP is 3.8^[a].
Turning to `C=C(CO/N=C(\N)c1csc(C)n1)CO/N=C(\N)c1csc(C)n1` [Compound 27], the logP under setting [1] is 3.19^[b].
Take `CC(=NOCCCCCCON=C(C)c1cccc(C)n1)c1ccc2c(c1)CC(C)O2` (centres unmarked) [compound 455]: the logP (value marked [b]) is 5.97^[b].
On to `CCCc1cccc(C(C)=NOCCCON=C(C)c2cccc(CCC)n2)n1` [Compound 174], for which the logP under setting [2] is 6.78^[a].
`CC(=NOC(=O)N(C)C(=O)ON=C(C)c1cc(C)cc(C)n1)c1cc(C)cc(C)n1` [compound 676]: the logP (method marked [b] in Table 1) is 2.21^[b].
`CC(=NOCC(C)CON=C(C)c1cnnc(C)n1)c1cccc(C)n1` (centres unmarked) [compound 426]: for the setting “value marked [b]”, the logP is 3.24^[b].
Turning to `Cc1cc(C)nc(/C(N)=N/OCO/N=C(\N)c2nc(C)cc(C)n2)n1` [compound 5], under setting [1], the logP was 1.49^[b].
As for `CC(=NOCC(C)CON=C(C)c1cccnc1C)c1cccc(C)n1` (centres unmarked) [compound 500], the logP (value marked [b]) was 1.85^[b].
For the molecule `CCC(=NOCC1(CON=C(CC)c2cccc(C)n2)CC(c2cccc(Cl)c2)=NO1)c1cccc(C)n1` (centres unmarked) [compound 613], the logP (method marked [b] in Table 1) is 5.84^[b].
Take `C=C(CON=C(C#CC)c1cccc(C)n1)CON=C(C#CC)c1cccc(C)n1` [compound 803]: for the setting “value marked [b]”, the logP was 3.07^[b].
Same read-out and setting: in the case of `CC(=NOCC(C)CON=C(C)c1ccccc1Cl)c1cccc(C)n1` (centres unmarked) [compound 436] it was 5.08^[b].
Consider `C=C(CON=C(C)c1cccc(C)n1)CON=C(C)c1nccc(OCC)n1` [compound 249], for which the logP under setting [1] is 3.17^[b].
On to `CC(=NOCC1(CON=C(C)c2ccc(C)c(C)n2)CCCC1)c1ccc(C)c(C)n1` [Compound 588], for which the logP (method marked [b] in Table 1) was 4.92^[b] and the logP (method marked [c] in Table 1) was 7.36^[c].
